# Data from patent US11065253B2, “Arylquinazolines” (Merck Patent GmbH, priority 2013, dated 2021).
# Test system: phospho-serine 2056 DNA-PK in HCT116 cells
# Assay: DNA-PK phosphorylation at serine 2056 (cellular), ELISA in bleomycin-treated HCT116 cells
# Format: cell-based
# Settings: Homo sapiens, HCT-116, 6 h, cellular; HCT116 cells, 10 μM bleomycin, six hours; read-out: IC50 pDNA-PK
# Protocol: HCT116 cells were cultivated at 37° C. and 10% CO2 in MEM alpha medium with 10% of foetal calf serum and 2 mM glutamine. The cells were detached from the base of the culture vessels with the aid of trypsin/EDTA, centrifuged off in centrifuge tubes, taken up in fresh medium, and the cell density was determined. 100,000 cells were sown in 1 ml of culture medium per cavity of a 24-well cell culture plate and cultivated overnight. Next day, 10 μM bleomycin (DNA intercalator and inductor of DNA double-strand breaks) and test substances in fresh culture medium were added to the cells, and these were cultivated for a further six hours. […] The 96-well ELISA plates were subsequently treated with a detection antibody (Abcam ab79444: total DNA-PK) and a streptavidin-HRP conjugate. The development of the enzymatic reaction was carried out with the aid of a chemiluminescent reagent, the chemiluminescence was measured with the aid of a Mithras LB940. The signals with the phospho-DNA-PK-specific antibody were standardised to the signal with the antibody against the total protein DNA-PKc. […] The DMSO control was used as blank.
row,Structure (SMILES),IC50 [µM]
1,"CC(C)(C)Oc1nccnc1C(O)c1ccc(F)c(-c2ncnc3cc(N4CCOCC4)ccc23)c1 (stereo not shown) [Example 13, (3-tert-Butoxy-pyrazin-2-yl)-[4-fluoro-3-(7-morpholin-4-yl-quinazolin-4-yl)phenyl]-methanol]",10 to 30
2,"OC(c1ccc(F)c(-c2ncnc3cc(N4CCOCC4)ccc23)c1)c1ncccc1OC(F)F (stereo not shown) [Example 81, (3-Difluoromethoxy-pyridin-2-yl)-[4-fluoro-3-(7-morpholin-4-yl-quinazolin-4-yl)-phenyl]methanol]",< 0.5
3,"COc1ccnnc1C(O)c1cc(-c2ncnc3cc(N4CCOCC4)ccc23)c(F)cc1Cl (stereo not shown) [Example 3, [2-Chloro-4-fluoro-5-(7-morpholin-4-yl-quinazolin-4-yl)phenyl]-(4-methoxy-pyridazin-3-yl)methanol]",0.5 to 5
4,"COc1cc(C(O)c2ccc(F)c(-c3ncnc4cc(N5CCOCC5)ccc34)c2)c(Cl)nn1 (stereo not shown) [Example 7, (3-Chloro-6-methoxy-pyridazin-4-yl)-[4-fluoro-3-(7-morpholin-4-yl-quinazolin-4-yl)phenyl]-methanol]",< 0.5
5,"NC(=O)c1ccc(C(O)c2cc(-c3ncnc4cc(N5CCOCC5)ccc34)c(F)cc2Cl)nn1 (stereo not shown) [Example 62, 6-{[2-Chloro-4-fluoro-5-(7-morpholin-4-yl-quinazolin-4-yl)phenyl]-hydroxymethyl}-pyridazine-3-carboxylic acid amide]",0.5 to 5

# Same assay, conditions: Homo sapiens, HCT-116, cellular DNA-PK phosphorylation at serine 2056, HCT116 cells; read-out: IC50 pDNA-PK
row,Structure (SMILES),IC50 [µM]
1,"Cc1nccnc1C(O)c1cc(-c2ncnc3cc(N4CCOCC4)ccc23)ccc1Cl (stereo not shown) [Example 426, [2-Chloro-5-(7-morpholin-4-yl-quinazolin-4-yl)-phenyl]-(3-methyl-pyrazin-2-yl)-methanol (Ena 2)]",0.5 to 5
2,"Cc1cncnc1C(C(N)=O)c1cc(-c2ncnc3cc(N4CCOCC4)ccc23)ccc1Cl (stereo not shown) [Example 377, 2-[2-Chloro-5-(7-morpholin-4-yl-quinazolin-4-yl)-phenyl]-2-(5-methyl-pyrimidin-4-yl)-acetamide (Ena 2)]",0.5 to 5
3,"Cn1cnc2c(C(O)c3cc(-c4ncnc5cc(N6CCOCC6)ccc45)c(F)cc3F)ncnc21 (stereo not shown) [Example 421, [2,4-Difluoro-5-(7-morpholin-4-yl-quinazolin-4-yl)-phenyl]-(9-methyl-9H-purin-6-yl)-methanol]",0.5 to 5
4,"Cc1nccnc1C(O)c1cc(-c2ncnc3cc(N4CCOCC4)ccc23)c(F)cc1Cl (stereo not shown) [Example 457, [2-Chloro-4-fluoro-5-(7-morpholin-4-yl-quinazolin-4-yl)-phenyl]-(3-methyl-pyrazin-2-yl)-methanol]",< 0.5
5,"CCn1c(C(O)c2ccc(F)c(-c3ncnc4cc(N5CCOCC5)ccc34)c2)cccc1=O (stereo not shown) [Example 398, 1-Ethyl-6-{[4-fluoro-3-(7-morpholin-4-yl-quinazolin-4-yl)-phenyl]hydroxy-methyl}-1H-pyridin-2-one]",0.5 to 5
6,"Cn1c(C(O)c2cc(-c3ncnc4cc(N5CCOCC5)ccc34)ccc2Cl)cccc1=O (stereo not shown) [Example 400, 6-{[2-Chloro-5-(7-morpholin-4-yl-quinazolin-4-yl)-phenyl]hydroxy-methyl}-1-methyl-1H-pyridin-2-one]",< 0.5
7,"Cn1cnc2ncnc(C(O)c3ccc(F)c(-c4ncnc5cc(N6CCOCC6)ccc45)c3)c21 (stereo not shown) [Example 433, [4-Fluoro-3-(7-morpholin-4-yl-quinazolin-4-yl)-phenyl]-(7-methyl-7H-purin-6-yl)-methanol]",0.5 to 5

# Same assay, conditions: Homo sapiens, HCT-116, phospho-serine 2056 DNA-PK, bleomycin-treated HCT116 cells; class symbols A-D; read-out: IC50 pDNA-PK
row,Structure (SMILES),IC50 [µM]
1,"Cc1csc(C(O)c2cc(-c3ncnc4cc(N5CCOCC5)ccc34)c(F)cc2Cl)n1 (stereo not shown) [Example 181, [2-Chloro-4-fluoro-5-(7-morpholin-4-yl-quinazolin-4-yl)-phenyl]-(4-methyl-thiazol-2-yl)-methanol]",0.5 to 5
2,"CCn1cc(C(O)c2cc(-c3ncnc4cc(N5CCOCC5)ccc34)c(F)cc2Cl)cn1 (stereo not shown) [Example 202, [2-Chloro-4-fluoro-5-(7-morpholin-4-ylquinazolin-4-yl)-phenyl]-(1-ethyl-1H-pyrazol-4-yl)-methanol]",0.5 to 5
3,"OC(c1ccc(OCC(F)(F)F)nn1)c1cc(-c2ncnc3cc(N4CCOCC4)ccc23)c(F)cc1Cl (stereo not shown) [Example 115, [2-Chloro-4-fluoro-5-(7-morpholin-4-yl-quinazolin-4-yl)-phenyl]-[6-(2,2,2-trifluoro-ethoxy)-pyridazin-3-yl]-methanol]",0.5 to 5
4,"CC(O)c1csc(C(O)c2cc(-c3ncnc4cc(N5CCOCC5)ccc34)c(F)cc2Cl)n1 (stereo not shown) [Example 201, 1-(2-{[2-Chloro-4-fluoro-5-(7-morpholin-4-yl-quinazolin-4-yl)-phenyl]hydroxy-methyl}thiazol-4-yl)-ethanol]",0.5 to 5

# Same assay, conditions: Homo sapiens, HCT-116, phospho-serine 2056 DNA-PK, bleomycin-treated HCT116 cells; read-out: IC50 pDNA-PK
row,Structure (SMILES),IC50 [µM]
1,"Cn1nc(C(C(N)=O)c2cc(-c3ncnc4cc(N5CCOCC5)ccc34)c(F)cc2Cl)ccc1=O (stereo not shown) [Example 311, 2-[2-Chloro-4-fluoro-5-(7-morpholin-4-yl-quinazolin-4-yl)-phenyl]-2-(1-methyl-6-oxo-1,6-dihydro-pyridazin-3-yl)-acetamide]",10 to 30
2,"[2H]c1c(N2CCOCC2)cc2ncnc(-c3cc(C(O)c4ccc(OC)nn4)c(Cl)cc3F)c2c1[2H] (stereo not shown) [Example 225, [2-Chloro-5-(5,6-dideuterio-7-morpholino-quinazolin-4-yl)-4-fluorophenyl]-(6-methoxypyridazin-3-yl)methanol]",< 0.5
3,"Cc1nccnc1/C(C(=O)O)=C1/C=CC(=O)C(c2ncnc3cc(N4CCOCC4)ccc23)=C1 [Example 331, (3-methyl-pyrazin-2-yl)-[3-(7-morpholin-4-ylquinazolin-4-yl)-4-oxocyclohexa-2,5-dien-(E)-ylidene]-acetic acid]",5 to 10
4,"OC(c1ccc(F)c(-c2ncnc3cc(N4CCOCC4)ccc23)c1)c1nccn2cccc12 (stereo not shown) [Example 356, [4-Fluoro-3-(7-morpholin-4-yl-quinazolin-4-yl)-phenyl]pyrrolo[1,2-a]-pyrazin-1-ylmethanol]",< 0.5
5,"Cc1cc(C(O)c2cc(-c3ncnc4cc(N5CCOCC5)ccc34)c(F)cc2Cl)n(C)c(=O)c1 (stereo not shown) [Example 339, 6-{[2-Chloro-4-fluoro-5-(7-morpholin-4-yl-quinazolin-4-yl)-phenyl]hydroxy-methyl}-1,4-dimethyl-1H-pyridin-2-one]",0.5 to 5
6,"Cc1cc(C(C(N)=O)c2cc(-c3ncnc4cc(N5CCOCC5)ccc34)c(F)cc2Cl)n(C)c(=O)c1 (stereo not shown) [Example 334, 2-[2-Chloro-4-fluoro-5-(7-morpholin-4-yl-quinazolin-4-yl)-phenyl]-2-(1,4-dimethyl-6-oxo-1,6-dihydropyridin-2-yl)-acetamide]",10 to 30
7,"COc1nccnc1C(C(N)=O)c1cc(-c2ncnc3cc(N4CCOCC4)ccc23)ccc1Cl (stereo not shown) [Example 304, 2-[2-Chloro-5-(7-morpholin-4-yl-quinazolin-4-yl)-phenyl]-2-(3-methoxy-pyrazin-2-yl)acetamide]",5 to 10
8,"NC(=O)C(c1ccc(F)c(-c2ncnc3cc(N4CCOCC4)ccc23)c1)c1ncnn2cccc12 (stereo not shown) [Example 299, 2-[4-Fluoro-3-(7-morpholin-4-yl-quinazolin-4-yl)-phenyl]-2-pyrrolo-[2,1-f][1,2,4]triazin-4-ylacetamide]",10 to 30
9,"COc1ccc(C(C(N)=O)c2ccc(F)c(-c3ncnc4cc(N5CCOCC5)ccc34)c2)nn1 (stereo not shown) [Example 308, 2-[4-Fluoro-3-(7-morpholin-4-yl-quinazolin-4-yl)-phenyl]-2-(6-methoxypyridazin-3-yl)acetamide]",10 to 30
10,"Cc1cnc(C(O)c2cc(-c3ncnc4cc(N5CCOCC5)ccc34)c(F)cc2F)c(C)n1 (stereo not shown) [Example 355, [2,4-Difluoro-5-(7-morpholin-4-yl-quinazolin-4-yl)-phenyl]-(3,5-dimethyl-pyrazin-2-yl)methanol]",0.5 to 5

# Same assay, conditions: cellular DNA-PK phosphorylation at serine 2056, HCT116 cells; read-out: IC50 pDNA-PK
row,Structure (SMILES),IC50 [µM]
1,"Cc1nccnc1C(O)c1cc(-c2ncnc3cc(N4CCOCC4)ccc23)ccc1Cl (stereo not shown) [Example 428, [2-Chloro-5-(7-morpholin-4-yl-quinazolin-4-yl)-phenyl]-(3-methyl-pyrazin-2-yl)-methanol]",< 0.5
2,"OC(c1cccnn1)c1cc(-c2ncnc3cc(N4CCOCC4)ccc23)ccc1Cl (stereo not shown) [Example 479, [2-Chloro-5-(7-morpholin-4-yl-quinazolin-4-yl)-phenyl]pyridazin-3-yl-methanol]",< 0.5

# Same assay, conditions: cellular; HCT116 cells, 10 μM bleomycin, six hours; read-out: IC50 pDNA-PK
row,Structure (SMILES),IC50 [µM]
1,"OC(c1cccnn1)c1cc(-c2ncnc3cc(N4CCOCC4)ccc23)c(F)cc1Cl (stereo not shown) [Example 47, [2-Chloro-4-fluoro-5-(7-morpholin-4-yl-quinazolin-4-yl)phenyl]-pyridazin-3-ylmethanol]",< 0.5
2,"OC(c1ccc2nccn2n1)c1cc(-c2ncnc3cc(N4CCOCC4)ccc23)c(F)cc1F (stereo not shown) [Example 21, [2,4-Difluoro-5-(7-morpholin-4-yl-quinazolin-4-yl)phenyl]-imidazo[1,2-b]pyridazin-6-ylmethanol]",< 0.5

# Same assay, conditions: phospho-serine 2056 DNA-PK, bleomycin-treated HCT116 cells; read-out: IC50 pDNA-PK
row,Structure (SMILES),IC50 [µM]
1,"[2H]C1([2H])OC([2H])([2H])C([2H])([2H])N(c2ccc3c(-c4cc(C(O)c5nccnc5OC)c(Cl)cc4F)ncnc3c2)C1([2H])[2H] (stereo not shown) [Example 242, [2-Chloro-4-fluoro-5-[7-(2,2,3,3,5,5,6,6-octadeuterio-morpholin-4-yl)quinazolin-4-yl]phenyl]-(3-methoxypyrazin-2-yl)methanol]",< 0.5
